Results taken from US20030044400A1, “Composition and method for treating cells” (priority 2001, published 2003).

How the values were obtained:
PC-3 induced tumor = experiment: Prostate Tumor Inhibition Model (PC-3, nude mice); assay type: in vivo, nude adult male mice; conditions: for Avg. Weight Tumor / Avg. Weight mice / Total Weight Tumor: nude mice with PC-3 tumors
Method: The 30-35 g nude adult male mice were used for this study. The inoculum of PC-3 cells applied to induce tumor formation was adjusted with RPMI-1640 to 2×10^7 cells/0.1 ml. To induce tumor formation, a 0.1 ml suspension of PC-3 was injected subcutaneously at a site between the ears using a 26 gauge, ⅜″ needle. The tumors were allowed to grow for 38 days. The mice in the control group received 0.1 ml saline intraperitoneally for 10 days. Mice in the treated group received 10 consecutive 0.1 ml intraperitoneal injections of Fetuin adjusted by dilution in sterile deionized water to deliver dose concentration of 0.1 ml, 0.01 ml and 0.001 ml at 10 mg/ml. Tumors were weighed individually when the mice were sacrificed for subsequent histopathology study.

[1] = system: transforming growth factor-beta (TGF); experiment: Binding of transforming growth factor-beta
P388 leukemia = experiment: P388 Leukemia Model; assay type: in vivo; conditions: P388-bearing DBA/2 mice; for Survivors: 10 per group
Method: All mice used were kept according to NIH standard regulation. The DBA/2 mice were divided into 4 groups, 10 mice in each group. The P388 innoculum tumor was induced by intraperitoneal injection of 10^6 cells per 0.1 ml innoculum. All doses were made up to a volume of 0.5 ml. Treatment was intraperitoneal injection of 0.5 ml saline (control), 0.002 ml of 10 mg/ml Fetuin (Group I), 0.02 ml (Group II) and 0.2 ml (Group III) for 10 days following tumor transplant. Mortalities were recorded daily. Results are expressed as the percent increase in life span (ILS) in Table 2.
ILS=100×Median Life Span Treated−Median Life Span Control

normal cell lines = experiment: Apoptosis in normal cell lines; assay type: cell-based; conditions: in 2-3 days
PC-12 cells = experiment: Neurite outgrowth of PC-12 cells; assay type: cell-based; conditions: PC-12 cells in 0.5% serum+RPMI; 5uM Fetuin; over 2-3 days
Method: PC-12 cells were seeded in 10% heat-inactivated horse serum, 5% fetal bovine serum in RPMI 1640 medium for 1-2 days. The media were changed to 0.5% serum+RPMI overnight and treated with 5uM Fetuin.

[2] = Fetuin 0.001 ml × 10 ip (10 mg/ml)
[3] = Fetuin 0.01 ml × 10 ip (10 mg/ml)
[4] = Fetuin 0.1 ml × 10 ip (10 mg/ml)

Fetuin: Fetal bovine fetuin purified from fetal bovine serum by modified Spiro method; 60 Kd glycoprotein, homologue of alpha 2-HS glycoprotein
prostate tumor size compared to the control group (PC-3 induced tumor; highest doses): 40%
Avg. Weight Tumor (PC-3 induced tumor; [2]): 2.03 g
Avg. Weight mice (PC-3 induced tumor; [2]): 33.9 g
Total Weight Tumor (PC-3 induced tumor; [2]): 6.1 g
Avg. Weight Tumor (PC-3 induced tumor; [3]): 2.08 g
Avg. Weight mice (PC-3 induced tumor; [3]): 35.3 g
Total Weight Tumor (PC-3 induced tumor; [3]): 6.24 g
Avg. Weight Tumor (PC-3 induced tumor; [4]): 1.01 g
Avg. Weight mice (PC-3 induced tumor; [4]): 32.0 g
Total Weight Tumor (PC-3 induced tumor; [4]): 3.04 g
binding of transforming growth factor-beta (TGF) [1]: high affinity
Survivors (P388 leukemia; 0.002 ml of 10 mg/ml Fetuin ip for 10 days, bracket (31) = day): 1 (31)
Survivors (P388 leukemia; 0.02 ml of 10 mg/ml Fetuin ip for 10 days, bracket (29) = day): 1 (29)
Survivors (P388 leukemia; 0.2 ml of 10 mg/ml Fetuin ip for 10 days (highest dose), bracket (58) = day, listed as Fetal fetuin): 8
(ILS) Increased Life Span (P388 leukemia; 0.002 ml of 10 mg/ml Fetuin ip for 10 days): 29%
(ILS) Increased Life Span (P388 leukemia; 0.02 ml of 10 mg/ml Fetuin ip for 10 days): 17.2%
(ILS) Increased Life Span (P388 leukemia; 0.2 ml of 10 mg/ml Fetuin ip for 10 days (highest dose)): 141%
apoptosis in normal cell lines (normal cell lines): not the normal cell lines
neurite outgrowth (PC-12 cells): neurite outgrowth was observed in many of the cells
